Data taken from patent publication US20090099240A1, “METHODS FOR TREATING ENERGY METABOLISM DISORDERS BY INHIBITING FATTY ACID AMIDE HYDROLASE ACTIVITY” (N.V. Organon, priority 2006, published 2009).

Experiments:
[1] = system: APOE*3-Leiden transgenic (E3L) mice; assay: Plasma ketone body (D-3-hydroxybutyrate) levels in E3L mice; assay type: in vivo, mouse
Excerpt: (§1) E3L mice were fed a high cholesterol (1% w/w) diet (HC diet) for a period of four weeks. Animals were then matched based on their plasma cholesterol levels, and were divided into five groups, each of which was maintained on an HC diet.
We quantified plasma D-3-hydroxybutyrate (b-HBA; ketone bodies) levels were quantified in plasma samples obtained after a 4-hour fasting period at time points t=0, t=2, and t=4 weeks using kits #2940 (b-HBA reagent set) and #2947 (b-HBA control set)) according to the guidelines and protocol specified by the manufacturer (Instruchemie, Delfzijl, The Netherlands).

[2] = system: APOE*3-Leiden transgenic (E3L) mice; assay: Plasma adiponectin ELISA in E3L mice; assay type: in vivo, mouse
Excerpt: as §1
We determined plasma adiponectin levels after a four hour fasting period at 0, 14, 28 days, using a mouse-specific adiponectin/Acrp30 ELISA (kit number MRP300 from R&D Systems, Minneapolis, Minn.).

[3] = system: APOE*3-Leiden transgenic (E3L) mice; assay: Food intake per animal per day in E3L mice; assay type: in vivo, mouse
Excerpt: (§2) We assessed the effect of inhibiting FAAH activity on body weight, body fat, triglyceride levels, cholesterol levels in APOE*3-Leiden transgenic (E3L) mice, an animal model of hyperlipidemia. […] See van Vlijmen et al. (1994), J. Clin Invest., 93:1403-1410. Indeed, upon high fat and cholesterol feeding, these mice develop various stages of atherosclerotic lesions depending on plasma total cholesterol levels and resembling those found in humans. See Groot et al. (1996), Arterioscler. Thromb. Vasc. Biol., 16:926-933; Versch ren et al. (2005), Arterioscler. Thromb. Vasc Biol., 25:161-167; and Lutgens et al. (1999), Circulation; 99(2):276-283). Thus, the E3L mouse is a suitable model for the investigation of the efficacy of anti-atherosclerotic drugs.
as §1

[4] = system: APOE*3-Leiden transgenic (E3L) mice; assay: Total plasma cholesterol in E3L mice; assay type: in vivo, mouse
Excerpt: as §2, §1
(§3) Blood samples were collected at days 0, 14, and 28 of the treatment period. At the end of the treatment period, animals were sacrificed, and various tissues and organs were analyzed. Unless otherwise indicated, values are mean±standard deviation (SD).

[5] = system: APOE*3-Leiden transgenic (E3L) mice; assay: Total plasma triglyceride levels in E3L mice; assay type: in vivo, mouse
Excerpt: as §2, §1, §3

[6] = system: APOE*3-Leiden transgenic (E3L) mice; assay: Plasma alanine aminotransferase (ALAT) activity in E3L mice; assay type: in vivo, mouse; details: day 28
Description: as §1
Levels of plasma alanine aminotransferase (ALAT) were determined on day 28 (table 7). Plasma ALAT is a measure of hepatic stress and increases in plasma ALAT levels are often associated with liver damage. […] Thus, a reduction in plasma ALAT levels is associated with improved liver function.

[7] = system: APOE*3-Leiden transgenic (E3L) mice; assay: Body weight in E3L mice on high cholesterol diet; assay type: in vivo, mouse
Excerpt: as §2, §1

[8] = system: APOE*3-Leiden transgenic (E3L) mice; assay: Oil Red O staining of liver sections (steatosis) in E3L mice; assay type: in vivo, mouse
Excerpt: as §1
In order to examine cellular stress in the liver due to lipid storage (steatosis), we stained frozen liver tissue sections with Oil Red O a fat-soluble diazo dye used to stain for lipids. Digital photomicrographs of liver cross sections were taken for each individual animal (magnification: 20 fold). […]

[9] = system: APOE*3-Leiden transgenic (E3L) mice; assay: Plasma leptin ELISA in E3L mice; assay type: in vivo, mouse
Excerpt: as §1
Accordingly, we quantified plasma leptin levels after a four hour fasting period at treatment time points 0, 14, and 28 days using a mouse-specific leptin ELISA or (kit number MOB00 from R&D Systems, Minneapolis, Minn.) according to the guidelines and protocol specified by the manufacturer.

[10] = system: APOE*3-Leiden transgenic (E3L) mice; assay: Plasma lipoprotein profiles (size fractionation of pooled plasma) in E3L mice; assay type: in vivo, mouse; details: day 28, FIG. 1
Description: as §1
Lipoprotein profiles were determined in pooled plasma from day 28, as described in Verschuren et al. (2005), Arterioscler. Thromb. Vasc Biol., 25:161-167. An equal amount of plasma per animal was used to prepare a plasma pool for each group. Plasma lipoproteins in each plasma pool were separated by size fractionation. Typically, VLDL, IDL/LDL and HDL lipoproteins are eluted in fractions 4-8, fractions 11-16 and fractions 17-20, respectively.

[11] = system: APOE*3-Leiden transgenic (E3L) mice; assay: Lipid content of liver (TLC) in E3L mice; assay type: in vivo, mouse
Excerpt: as §1
A reduction of Red Oil O staining in liver generally indicates reduced liver lipid content. We therefore quantified levels of lipids in livers from each animal, as described in Havekes et al. (1987), Biochem. J., 247:739-746; Delsing et al. (2005), J. Cardiovasc. Pharmacol., 45:53-60; and Post et al. (2004), ATVB, 24:768-774. Liver tissue homogenates were prepared. Lipids were extracted, dried under nitrogen, dissolved in chloroform, and spotted onto a channeled 20×20 cm silica gel thin layer chromatography (TLC) plate. Lipids were then separated, TLC plates were warmed up to visualize bands, and bands were quantified using an internal standard as reference.

[12] = system: APOE*3-Leiden transgenic (E3L) mice; assay: Organ and tissue weights in E3L mice on high cholesterol diet
Excerpt: as §2, §1, §3

For `CCCCCCCC/C=C\CCCCCCCC(=O)NCCO` [OEA, oleoylethanolamide], the “plasma HB levels, in words” value ([1]; at 28 days, compared to the oral vehicle control group) was “significantly lower”, the “Plasma Ketone Body (HB) levels” value ([1]; day 0, 4-hour fasting) was 0.79 ± 0.19 mM and the “Plasma Ketone Body (HB) levels” value ([1]; day 14, 4-hour fasting) was 0.23 ± 0.09 mM. The “Plasma Ketone Body (HB) levels” value ([1]; day 28, 4-hour fasting) was “^#0.38 ± 0.10^ mM”, the Plasma Adiponectin Levels ([2]; day 0, four hour fasting) was 12.9 ± 2.8 µg/mL and the Plasma Adiponectin Levels ([2]; day 14, four hour fasting) was 11.3 ± 3.5 µg/mL. For the same molecule, the Plasma Adiponectin Levels ([2]; day 28, four hour fasting) was 11.4 ± 2 µg/mL, the “Food Intake Per Animal Per Day” value ([3]; interval 0-0.5 weeks) was 2.5 ± 0.05 g and the “Food Intake Per Animal Per Day” value ([3]; interval 0.5-1.0 weeks) was 2.3 ± 0.04 g. The “Food Intake Per Animal Per Day” value ([3]; interval 1.0-1.5 weeks) was 2.4 ± 0.1 g, the “Food Intake Per Animal Per Day” value ([3]; interval 1.5-2.0 weeks) was 2.4 ± 0.1 g and the “Food Intake Per Animal Per Day” value ([3]; interval 2.0-2.5 weeks) was 2.3 ± 0.1 g. The “Food Intake Per Animal Per Day” value ([3]; interval 2.5-3.0 weeks) was 2.3 ± 0.05 g, the “Food Intake Per Animal Per Day” value ([3]; interval 3.0-3.5 weeks) was 2.3 ± 0.1 g and the “Food Intake Per Animal Per Day” value ([3]; interval 3.5-4.0 weeks) was “*2.0 ± 0.1 g”. The “Food Intake Per Animal Per Day” value ([3]; interval run-in) was 2.5 ± 0.5 g, the “food intake, in words” value ([3]; last time point) was “slight, but significant, decrease” and the “Total Plasma Cholesterol” value ([4]; day 0) was 13.9 ± 3.4 mM. For the same molecule, the “Total Plasma Cholesterol” value ([4]; day 14) was “^#16.0 ± 2.9 mM”, the “Total Plasma Cholesterol” value ([4]; day 28) was “^#15.8 ± 2.7 mM” and the “total plasma cholesterol levels, in words” value ([4]; days 14 and 28, relative to respective control group) was “slightly and significantly increased”. For the same molecule, the “Total Plasma Triglyceride Levels” value ([5]; day 0) was 1.5 ± 0.4 mM, the “Total Plasma Triglyceride Levels” value ([5]; day 14) was 1.7 ± 0.6 mM and the “Total Plasma Triglyceride Levels” value ([5]; day 28) was “*1.3 ± 0.3 mM”. The “total plasma triglyceride levels, in words” value ([5]; relative to respective control group) was “slightly decreased”, the “Plasma Alanine Amino Transferase Activity” value [6] was “*68.6 ± 17.6 U/L” and the “body weights, in words” value ([7]; last time point (4 weeks), within group) was “significantly reduced”. The “Body Weight” value ([7]; week 0) was 22.3 ± 1.3 g, the “Body Weight” value ([7]; week 0.5) was 22.5 ± 1.0 g and the “Body Weight” value ([7]; week 1) was 22.6 ± 1.0 g. The “Body Weight” value ([7]; week 1.5) was 21.8 ± 1.1 g, the “Body Weight” value ([7]; week 2) was 21.9 ± 1.2 g and the “Body Weight” value ([7]; week 2.5) was 21.9 ± 1.3 g. The “Body Weight” value ([7]; week 3) was “*21.6 ± 1.1 g”, the “Body Weight” value ([7]; week 3.5) was “*21.3 ± 1.2 g” and the “Body Weight” value ([7]; week 4) was “*21.4 ± 1.2 g”. For the same molecule, the “steatotic (Oil Red O) staining in liver, in words” value ([8]; compared to the control vehicle group) was “small, but significant reduction”, the “Oil Red O Staining in Liver, Mild-Severe (above 115 relative units)” value ([8]; end of four-week treatment) was “*36 ± 5 % of cross-sectional area” and the “Oil Red O Staining in Liver, Severe (above 175 relative units)” value ([8]; end of four-week treatment) was “*8 ± 2 % of cross-sectional area”. For the same molecule, the “plasma leptin levels, in words” value ([9]; at 14 days, relative to the oral vehicle control group) was “lower”, the “Plasma Leptin Levels” value ([9]; day 0, four hour fasting) was 4.7 ± 2.3 ng/mL and the “Plasma Leptin Levels” value ([9]; day 14, four hour fasting) was “^#7.3 ± 3.1^ ng/ml”. The “Plasma Leptin Levels” value ([9]; day 28, four hour fasting) was 6.1 ± 4.6 ng/mL, the “IDL/LDL particle size, in words” value [10] was “slight shift toward larger IDL/LDL particles” and the “VLDL fraction of plasma lipoprotein profile, in words” value [10] was “increase”. The “liver cholesterol esters (CE), in words” value ([11]; compared to the oral vehicle group) was “significantly increased”, the “Lipid Content of Liver: Cholesterol Esters” value ([11]; end of four-week treatment) was “^#61 ± 7 ^” and the “Lipid Content of Liver: Free Cholesterol” value ([11]; end of four-week treatment) was 21 ± 2. The “Lipid Content of Liver: Triglycerides” value ([11]; end of four-week treatment) was 94 ± 11, the “Organ and Tissue Weights: Fat (gonadal fat)” value ([12]; E3L mice, HC diet, end of four-week treatment, mean ± SD) was “*0.24 ± 0.06 g” and the “Organ and Tissue Weights: Brain” value ([12]; mouse, in vivo) was 0.44 ± 0.02 g. For the same molecule, the “Organ and Tissue Weights: Heart” value ([12]; mouse, in vivo) was 0.14 ± 0.01 g, the “Organ and Tissue Weights: Liver” value ([12]; mouse, in vivo) was 0.91 ± 0.16 g and the “Organ and Tissue Weights: Lung” value ([12]; mouse, in vivo) was 0.19 ± 0.02 g. The “gonadal fat weight, in words” value ([12]; relative to the oral vehicle group) was “significantly lower”.
